Source: patent publication US9181181B2, “2-substituted-3-phenylpropionic acid derivatives and their use in the treatment of inflammatory bowel disease” (Albireo AB, priority 2007, dated 2015)

Experiments:
human PPARgamma = human PPARgamma (Homo sapiens (Human), UniProt P37231); test: Transactivation (reporter gene) assay, GAL4-PPARgamma LBD in U-2 OS cells; assay type: cell-based; conditions: 40 h incubation, 16 μM Pioglitazone as 100% control, read-out: EC50 PPARγ
Experimental: (§1) Transactivation Assay Expression vectors were prepared by inserting the ligand binding domain cDNA (complementary DNA) of human PPARalpha (amino acid 168-468) and human PPARgamma (amino acid 205-505), 3′ to and in frame with, the yeast GAL4 transcription factor DNA binding domain and the nuclear localization signal from the T-antigen of Polyoma Virus into the mammalian expression vector pSGS (Stratagene). The resulting expression vectors pSGGAL-PPARalpha and pSGGAL-PPARgamma were used in co-transfection experiments together with a modified pGL3 promoter plasmid (Promega) containing five copies of the UAS GAL4 recognition site. 2.5 μg pSGGAL-PPARalpha or pSGGAL-PPARgamma were mixed with 25 μg pGL3p […] and 22.5 μg pBluescript (Stratagene) in 0.95 mL ice cold PBS containing between 9-12 million U-2 OS (human osteosarcoma) cells. The cell/DNA mixture was incubated on ice for 5 minutes and then divided between two 0.4 cm cuvettes and electroporated at 960 μF, 230 V using a BioRad electroporator. The two electroporation mixes were combined in assay medium [Dulbecco's Modified Eagle Medium w/o phenol red, (Gibco 11880-028) including 10% FBS (Foetal Bovine Serum), 1% PEST (Penicillin & Streptomycin), 20 mM Hepes, 2 mM L-Glutamine and 0.36% Glucose (Gibco 31966-021)] at 0.32 million cells/ml. 25 μl diluted, electroporated cells, were seeded into 384-well plates and allowed to adhere for 3-4 h at 37° C., 5% CO2 in a cell culture incubator. Test compounds in DMSO were diluted 40 fold in assay medium. 7 μl of diluted compound was added to the adhered electroporated cells and incubation was continued for 40 h in a cell culture incubator. Cells were lysed by adding 32 μl/well LucLite (Packard) and incubated at room temperature for 15 minutes. Luciferase activity was measured using a luminometry protocol on a Wallac Victor2 plate reader. 16 μM ETYA was used as the 100% control for humanPPARalpha activity and 16 μM Pioglitazone was used as the 100% control for humanPPARgamma activity. In Vivo Assay Determination of Plasma Clearance and Oral Bioavailability in Hamster or Mouse

human PPARalpha = human PPARalpha (Homo sapiens (Human), UniProt Q07869); test: Transactivation (reporter gene) assay, GAL4-PPARalpha LBD in U-2 OS cells; assay type: cell-based; conditions: 40 h incubation, 16 μM ETYA as 100% control, read-out: EC50 PPARα
Sequence of human PPARalpha (Q07869 168-468): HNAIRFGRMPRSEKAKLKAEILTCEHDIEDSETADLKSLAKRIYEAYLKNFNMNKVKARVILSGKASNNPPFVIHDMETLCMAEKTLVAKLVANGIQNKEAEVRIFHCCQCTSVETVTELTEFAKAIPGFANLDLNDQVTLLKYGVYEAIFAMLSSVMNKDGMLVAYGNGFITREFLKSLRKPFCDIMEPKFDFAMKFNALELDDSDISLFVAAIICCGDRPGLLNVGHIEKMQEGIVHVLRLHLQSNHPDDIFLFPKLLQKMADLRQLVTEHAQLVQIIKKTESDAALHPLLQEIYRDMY
Experimental: as §1

Sequence of human PPARgamma (P37231 205-505): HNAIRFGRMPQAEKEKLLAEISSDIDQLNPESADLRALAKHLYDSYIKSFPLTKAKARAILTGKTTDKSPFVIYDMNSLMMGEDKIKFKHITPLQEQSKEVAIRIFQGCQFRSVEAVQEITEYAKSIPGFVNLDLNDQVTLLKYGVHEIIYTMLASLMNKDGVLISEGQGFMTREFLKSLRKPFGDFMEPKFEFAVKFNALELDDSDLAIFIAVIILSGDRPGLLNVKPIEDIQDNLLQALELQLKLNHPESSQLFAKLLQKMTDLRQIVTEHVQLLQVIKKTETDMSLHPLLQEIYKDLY

| Structure (SMILES) | EC50 (human PPARgamma) [nM] | EC50 (human PPARalpha) [nM] |
| --- | --- | --- |
| Cc1oc(-c2ccccc2)nc1CCOC(=O)c1ccc(CC(SCCc2ccc(F)cc2)C(=O)O)cc1 (single isomer, unassigned) [Example 20, 4-{(−)-2-Carboxy-2-[2-(4-fluoro-phenyl)-ethylsulfanyl]-ethyl}-benzoic acid 2-(5-methyl-2-phenyl-oxazol-4-yl)-ethyl ester] | 72 | 840 |
| Cc1oc(-c2ccccc2)nc1CC(=O)OCc1ccc(CC(SCCc2ccc(F)cc2)C(=O)O)cc1 (single isomer, unassigned; (-)) [Example 19, (−)-2-[2-(4-Fluoro-phenyl)-ethylsulfanyl]-3-{4-[2-(5-methyl-2-phenyl-oxazol-4-yl)-acetoxymethyl]-phenyl}-propionic acid] | 470 | 72 |
| O=C(Cc1ccc(CC(SCCc2ccc(F)cc2)C(=O)O)cc1)OCc1ccc(C(F)(F)F)cc1 (stereo not drawn) [Example 3, 2-[2-(4-Fluoro-phenyl)-ethylsulfanyl]-3-[4-(4-trifluoromethyl-benzyloxycarbonylmethyl)-phenyl]-propionic acid] | 1700 | 56 |
| CS(=O)(=O)Oc1ccc(COC(=O)Cc2ccc(CC(SCCc3ccc(F)cc3)C(=O)O)cc2)cc1 (stereo not drawn) [Example 4, 2-[2-(4-Fluoro-phenyl)-ethylsulfanyl]-3-[4-(4-methanesulfonyloxy-benzyloxycarbonylmethyl)-phenyl]-propionic acid] |  | 1400 |
| CS(=O)(=O)Oc1ccc(CC(=O)OCCc2ccc(CC(SCCc3ccc(F)cc3)C(=O)O)cc2)cc1 (stereo not drawn) [Example 5, 2-[2-(4-Fluoro-phenyl)-ethylsulfanyl]-3-(4-{2-[2-(4-methanesulfonyloxy-phenyl)-acetoxy]-ethyl}-phenyl)-propionic acid] | 6000 | 200 |
| CS(=O)(=O)Oc1ccc(CC(=O)OCCCc2ccc(CC(SCCc3ccc(F)cc3)C(=O)O)cc2)cc1 (stereo not drawn) [Example 6, 2-[2-(4-Fluoro-phenyl)-ethylsulfanyl]-3-(4-{3-[2-(4-methanesulfonyloxy-phenyl)-acetoxy]-propyl}-phenyl)-propionic acid] | 18000 | 330 |
| CC(C(=O)OCc1ccc(CC(SCCc2ccc(F)cc2)C(=O)O)cc1)c1ccccc1 (stereo not drawn) [Example 7, 2-[2-(4-Fluoro-phenyl)-ethylsulfanyl]-3-[4-(2-phenyl-propionyloxymethyl)-phenyl]-propionic acid] | 1700 | 18000 |
| COc1ccc(CC(=O)OCc2ccc(CC(SCCc3ccc(F)cc3)C(=O)O)cc2)cc1 (stereo not drawn) [Example 8] | 2500 | 270 |
| CC(C)Cc1ccc(C(C)C(=O)OCc2ccc(CC(SCCc3ccc(F)cc3)C(=O)O)cc2)cc1 (stereo not drawn) [Example 9, 2-[2-(4-Fluoro-phenyl)-ethylsulfanyl]-3-{4-[2-(4-isobutyl-phenyl)-propionyloxymethyl]-phenyl}-propionic acid] | 930 | 1500 |
| CN1CCN(CC(=O)OCc2ccc(CC(SCCc3ccc(F)cc3)C(=O)O)cc2)CC1 (stereo not drawn) [Example 11, 2-[2-(4-Fluoro-phenyl)-ethylsulfanyl]-3-{4-[2-(4-methyl-piperazin-1-yl)-acetoxymethyl]-phenyl}-propionic acid] | 810 | 150 |
| O=C(OCc1nc(-c2ccccc2)oc1C(F)(F)F)c1ccc(CC(SCCc2ccc(F)cc2)C(=O)O)cc1 (stereo not drawn) [Example 12, 4-{2-Carboxy-2-[2-(4-fluoro-phenyl)-ethylsulfanyl]-ethyl}-benzoic acid 2-phenyl-5 trifluoromethyl-oxazol-4-ylmethyl ester] | 58 |  |
| O=C(OCc1ccc(CC(SCCc2ccc(F)cc2)C(=O)O)cc1)c1nc(-c2ccccc2)oc1C(F)(F)F (stereo not drawn) [Example 13, 2-Phenyl-5-trifluoromethyl-oxazole-4-carboxylic acid 4-{2-carboxy-2-[2-(4-fluoro-phenyl)-ethylsulfanyl]-ethyl}-benzyl ester] | 30 | 12 |
| Cc1oc(-c2ccccc2)nc1CCOC(=O)c1ccc(CC(SCCc2ccc(F)cc2)C(=O)O)cc1 (stereo not drawn) [Example 14, 4-{2-Carboxy-2-[2-(4-fluoro-phenyl)-ethylsulfanyl]-ethyl}-benzoic acid 2-(5-methyl-2 phenyl-oxazol-4-yl)-ethyl ester] | 110 | 1400 |
| Cc1oc(-c2ccccc2)nc1CC(=O)OCc1ccc(CC(SCCc2ccc(F)cc2)C(=O)O)cc1 (stereo not drawn) [Example 15, 2-[2-(4-Fluoro-phenyl)-ethylsulfanyl]-3-{4-[2-(5-methyl-2-phenyl-oxazol-4-yl)acetoxymethyl]-phenyl}-propionic acid] | 840 | 130 |
| CS(=O)(=O)Oc1ccc(COC(=O)c2ccc(CC(SCCc3ccc(F)cc3)C(=O)O)cc2)cc1 (stereo not drawn) [Example 16, 4-{2-Carboxy-2-[2-(4-fluoro-phenyl)-ethylsulfanyl]-ethyl}-benzoic acid 4-methanesulfonyloxy-benzyl ester] |  | 1100 |
| O=C(Cc1ccc(CC(C(=O)O)S(=O)(=O)CCc2ccc(F)cc2)cc1)OCc1ccc(C(F)(F)F)cc1 (stereo not drawn) [Example 17, 2-[2-(4-Fluoro-phenyl)-ethanesulfonyl]-3-[4-(4-trifluoromethyl-benzyloxycarbonylmethyl)-phenyl]-propionic acid] | 18000 | 4400 |
| CS(=O)(=O)Oc1ccc(CCSC(=O)c2ccc(CC(SCCc3ccc(F)cc3)C(=O)O)cc2)cc1 (stereo not drawn) [Example 18, 2-[2-(4-Fluoro-phenyl)-ethylsulfanyl]-3-{4-[2-(4-methanesulfonyloxy-phenyl)-ethylsulfanylcarbonyl]-phenyl}-propionic acid] |  | 3400 |
| CCO[C@@H](Cc1ccc(OC(=O)Cc2ccc(NC(=O)OC(C)(C)C)cc2)cc1)C(=O)O [Example 22, (S)-3-{4-[2-(4-tert-Butoxycarbonylamino-phenyl)-acetoxy]-phenyl}-2-ethoxy-propionic acid] | 18000 | 18000 |
| CCOC(Cc1ccc(OC(=O)Cc2nc(-c3ccccc3)oc2C)c(Cc2ccccc2)c1)C(=O)O (stereo not drawn) [Example 23, 3-{3-Benzyl-4-[2-(5-methyl-2-phenyl-oxazol-4-yl)-acetoxy]-phenyl}-2-ethoxy-propionic acid] | 53 |  |
| CCOC(Cc1ccc(OC(=O)Cc2ccc(NC(=O)OC(C)(C)C)cc2)c(Cc2ccccc2)c1)C(=O)O (stereo not drawn) [Example 24, 3-{3-Benzyl-4-[2-(4-tert-butoxycarbonylamino-phenyl)-acetoxy]-phenyl}-2-ethoxy-propionic acid] | 5.2 |  |
| CCOC(Cc1ccc(OC(=O)Cc2nc(-c3ccccc3)oc2C)c(C)c1)C(=O)O (stereo not drawn) [Example 25, 2-Ethoxy-3-{3-methyl-4-[2-(5-methyl-2-phenyl-oxazol-4-yl)-acetoxy]-phenyl}-propionic acid] | 43 |  |
| CCOC(Cc1ccc(OC(=O)Cc2ccc(NC(=O)OC(C)(C)C)cc2)c(C)c1)C(=O)O (stereo not drawn) [Example 26, 3-{4-[2-(4-tert-Butoxycarbonylamino-phenyl)-acetoxy]-3-methyl-phenyl}-2-ethoxy-propionic acid] | 73 |  |
| CCOC(Cc1ccc(C(=O)OCc2ccc(OS(C)(=O)=O)cc2)cc1)C(=O)O (stereo not drawn) [Example 27, 4-(2-Carboxy-2-ethoxy-ethyl)-benzoic acid 4-methanesulfonyloxy-benzyl ester] | 1400 |  |
| O=C(Cc1cccc(SCc2ccccc2C(=O)O)c1)OCc1ccc(C(F)(F)F)cc1 [Example 28, 2-[3-(4-Trifluoromethyl-benzyloxycarbonylmethyl)-phenylsulfanylmethyl]-benzoic acid] | 2500 | 1300 |
